Source: ChEMBL document CHEMBL1201862, “PubChem BioAssay data set” (2004)
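Growth conditions: 96-well plates. Treatment: test compound, 48 hours, 5 concentrations. Analysis: linear interpolation between bracketing concentrations; unreached endpoints set to highest concentration. GI50 is the concentration that inhibits growth by half.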 Calls of active or inactive are those of the source. Rule as the data show it: active = GI50 up to about 1.1 µM and inactive = higher.

Key:
Test in all cases: NCI-60 cell line screen, 48 h
[1] = system: ACHN
[2] = system: IGROV-1
[3] = system: Malme-3M
[4] = system: RXF 393
[5] = system: PC-3
[6] = system: EKVX
[7] = system: MCF7
[8] = system: HCT-116
[9] = system: SK-MEL-28
[10] = system: UACC-62
[11] = system: A498
[12] = system: HCT-15
[13] = system: NCI-H226
[14] = system: A549
[15] = system: SW-620
[16] = system: U-251
[17] = system: DU-145
[18] = system: NCI-H460
[19] = system: OVCAR-5
[20] = system: SNB-19

With `CC(CSc1nc2c(c(=N)n1-c1ccccc1)c(=S)n(-c1ccccc1)c(=S)n2-c1ccccc1)CN(C)C` (stereo not given) the GI50 [1] was 1.76 µM (inactive), the GI50 [2] was 1.4 µM (inactive) and the GI50 [3] was 1.71 µM (inactive). The GI50 [4] was 1.59 µM (inactive), the GI50 [5] was 1.87 µM (inactive) and the GI50 [6] was 1.66 µM (inactive). The GI50 [7] was 0.313 µM (active), the GI50 [8] was 1.67 µM (inactive) and the GI50 [9] was 2.12 µM (inactive). For the same compound, the GI50 [10] was 1.7 µM (inactive), the GI50 [11] was 2.8 µM (inactive) and the GI50 [12] was 1.55 µM. For the same compound, the GI50 [13] was 6.38 µM (inactive), the GI50 [14] was 1.82 µM (inactive) and the GI50 [15] was 1.79 µM (inactive). The GI50 [16] was 1.82 µM (inactive), the GI50 [17] was 1.66 µM (inactive) and the GI50 [18] was 1.97 µM (inactive). For the same compound, the GI50 [19] was 13.6 µM (inactive) and the GI50 [20] was 4.65 µM (inactive).
`CC(C)C(OC(=O)c1ccc(NCC2=CC(=O)C=CC2=O)cc1)C(C)C` was tested, and the GI50 [1] was 9.1 µM (inactive), the GI50 [2] was 1.81 µM (inactive) and the GI50 [3] was 8.89 µM (inactive). For the same compound, the GI50 [4] was 1.82 µM (inactive), the GI50 [5] was 8.09 µM (inactive) and the GI50 [6] was 8.26 µM (inactive). For the same compound, the GI50 [7] was 7.93 µM (inactive), the GI50 [8] was 11.7 µM (inactive) and the GI50 [9] was 4.05 µM (inactive). For the same compound, the GI50 [10] was 6.44 µM (inactive), the GI50 [11] was 9.12 µM (inactive) and the GI50 [12] was 2.97 µM. For the same compound, the GI50 [13] was 4.24 µM (inactive), the GI50 [14] was 25.2 µM (inactive) and the GI50 [15] was 6.76 µM (inactive). The GI50 [16] was 3.32 µM (inactive), the GI50 [17] was 18.4 µM (inactive) and the GI50 [18] was 14.6 µM (inactive). The GI50 [19] was 13.3 µM (inactive) and the GI50 [20] was 18.3 µM (inactive).
For `Cc1cc(=O)oc2cc(OS(C)(=O)=O)ccc12`, the GI50 [1] was > 100 µM (inactive), the GI50 [2] was > 100 µM (inactive) and the GI50 [3] was > 100 µM (inactive). For the same compound, the GI50 [4] was > 100 µM (inactive), the GI50 [5] was > 100 µM (inactive) and the GI50 [6] was > 100 µM (inactive). The GI50 [7] was > 100 µM (inactive), the GI50 [8] was > 100 µM (inactive) and the GI50 [9] was > 100 µM (inactive). For the same compound, the GI50 [10] was > 100 µM (inactive), the GI50 [11] was > 100 µM (inactive) and the GI50 [12] was over 100 µM. The GI50 [13] was > 100 µM (inactive), the GI50 [14] was > 100 µM (inactive) and the GI50 [15] was > 100 µM (inactive). For the same compound, the GI50 [16] was > 100 µM (inactive), the GI50 [17] was > 100 µM (inactive) and the GI50 [18] was > 100 µM (inactive). For the same compound, the GI50 [19] was > 100 µM (inactive) and the GI50 [20] was > 100 µM (inactive).
For `COc1cc(Cl)c(CC(=O)c2c[nH]c3ccccc23)cc1OC`, the GI50 [1] was 8.55 µM (inactive), the GI50 [2] was 32.4 µM (inactive) and the GI50 [3] was > 100 µM (inactive). The GI50 [4] was 12.3 µM (inactive), the GI50 [5] was > 100 µM (inactive) and the GI50 [6] was 18.7 µM (inactive). For the same compound, the GI50 [7] was > 100 µM (inactive), the GI50 [8] was 98.6 µM (inactive) and the GI50 [9] was > 100 µM (inactive). The GI50 [10] was > 100 µM (inactive), the GI50 [11] was 12.1 µM (inactive) and the GI50 [12] was over 100 µM. The GI50 [13] was 12.6 µM (inactive), the GI50 [14] was > 100 µM (inactive) and the GI50 [15] was > 100 µM (inactive). For the same compound, the GI50 [16] was 8.38 µM (inactive), the GI50 [17] was > 100 µM (inactive) and the GI50 [18] was > 100 µM (inactive). For the same compound, the GI50 [19] was > 100 µM (inactive) and the GI50 [20] was 13.4 µM (inactive).
In the case of `C=C1OC(c2ccccc2NC)=NC12CCCCC2`, the GI50 [1] was > 100 µM (inactive), the GI50 [2] was > 100 µM (inactive) and the GI50 [3] was > 100 µM (inactive). The GI50 [4] was > 100 µM (inactive), the GI50 [5] was > 100 µM (inactive) and the GI50 [6] was > 100 µM (inactive). The GI50 [7] was > 100 µM (inactive), the GI50 [8] was > 100 µM (inactive) and the GI50 [9] was > 100 µM (inactive). For the same compound, the GI50 [10] was > 100 µM (inactive), the GI50 [11] was > 100 µM (inactive) and the GI50 [12] was over 100 µM. For the same compound, the GI50 [13] was > 100 µM (inactive), the GI50 [14] was > 100 µM (inactive) and the GI50 [15] was > 100 µM (inactive). The GI50 [16] was > 100 µM (inactive), the GI50 [17] was > 100 µM (inactive) and the GI50 [18] was > 100 µM (inactive). For the same compound, the GI50 [19] was > 100 µM (inactive) and the GI50 [20] was > 100 µM (inactive).
With `COc1ccc2cc3c4cc5c(cc4cc[n+]3cc2c1OC)OCO5` the GI50 [1] was 38.4 µM (inactive), the GI50 [2] was 8.11 µM (inactive) and the GI50 [3] was 4.83 µM (inactive). For the same compound, the GI50 [4] was 24.4 µM (inactive), the GI50 [5] was 14.2 µM (inactive) and the GI50 [6] was 6.22 µM (inactive). The GI50 [7] was 20 µM (inactive), the GI50 [8] was 15.1 µM (inactive) and the GI50 [9] was 5.33 µM (inactive). For the same compound, the GI50 [10] was 12.3 µM (inactive), the GI50 [11] was > 100 µM (inactive) and the GI50 [12] was 83.2 µM. For the same compound, the GI50 [13] was 26.4 µM (inactive), the GI50 [14] was 18.3 µM (inactive) and the GI50 [15] was 5.27 µM (inactive). The GI50 [16] was 0.615 µM (active), the GI50 [17] was 30.3 µM (inactive) and the GI50 [18] was 17.9 µM (inactive). For the same compound, the GI50 [19] was 47.5 µM (inactive) and the GI50 [20] was 3.15 µM (inactive).
With `COc1ccccc1C(=O)c1c(NCc2ccccc2)c(=O)c1=O` the GI50 [1] was > 100 µM (inactive), the GI50 [2] was 9.55 µM (inactive) and the GI50 [3] was 23.4 µM (inactive). For the same compound, the GI50 [4] was 0.0708 µM (active), the GI50 [5] was > 100 µM (inactive) and the GI50 [6] was > 100 µM (inactive). For the same compound, the GI50 [7] was 0.0254 µM (active), the GI50 [8] was > 100 µM (inactive) and the GI50 [9] was 18.1 µM (inactive). For the same compound, the GI50 [10] was > 100 µM (inactive), the GI50 [11] was > 100 µM (inactive) and the GI50 [12] was 27.4 µM. For the same compound, the GI50 [13] was > 100 µM (inactive), the GI50 [14] was 0.424 µM (active) and the GI50 [15] was 18.2 µM (inactive). The GI50 [16] was 66.4 µM (inactive), the GI50 [17] was > 100 µM (inactive) and the GI50 [18] was > 100 µM (inactive). The GI50 [19] was > 100 µM (inactive) and the GI50 [20] was > 100 µM (inactive).
In the case of `COc1ccc(/C=C/C(=O)c2nc3ccccc3[nH]2)cc1`, the GI50 [1] was 15.1 µM (inactive), the GI50 [2] was 6.07 µM (inactive) and the GI50 [3] was 19 µM (inactive). For the same compound, the GI50 [4] was 15.5 µM (inactive), the GI50 [5] was 21.8 µM (inactive) and the GI50 [6] was 15.1 µM (inactive). For the same compound, the GI50 [7] was 8.38 µM (inactive), the GI50 [8] was 5.37 µM (inactive) and the GI50 [9] was 24.5 µM (inactive). The GI50 [10] was 17.6 µM (inactive), the GI50 [11] was 26.4 µM (inactive) and the GI50 [12] was 10.9 µM. The GI50 [13] was 5.32 µM (inactive), the GI50 [14] was 24.9 µM (inactive) and the GI50 [15] was 13.5 µM (inactive). For the same compound, the GI50 [16] was 13.8 µM (inactive), the GI50 [17] was 17.3 µM (inactive) and the GI50 [18] was 20.5 µM (inactive). The GI50 [19] was 22 µM (inactive) and the GI50 [20] was 24.2 µM (inactive).
For `CC(C)(C)OC(=O)c1ccc(NCc2cc(O)ccc2O)cc1`, the GI50 [1] was 1.73 µM (inactive), the GI50 [2] was 1.77 µM (inactive) and the GI50 [3] was 1.85 µM (inactive). For the same compound, the GI50 [4] was 1.36 µM (inactive), the GI50 [5] was 1.5 µM (inactive) and the GI50 [6] was 2.62 µM (inactive). The GI50 [7] was 3.61 µM (inactive), the GI50 [8] was 3.49 µM (inactive) and the GI50 [9] was 2.03 µM (inactive). The GI50 [10] was 7.16 µM (inactive), the GI50 [11] was 9.68 µM (inactive) and the GI50 [12] was 1.32 µM. For the same compound, the GI50 [13] was 2.22 µM (inactive), the GI50 [14] was 7.4 µM (inactive) and the GI50 [15] was 3.36 µM (inactive). For the same compound, the GI50 [16] was 1.95 µM (inactive), the GI50 [17] was 7.78 µM (inactive) and the GI50 [18] was 10.7 µM (inactive). For the same compound, the GI50 [19] was 6.58 µM (inactive) and the GI50 [20] was 8.07 µM (inactive).
